Assay results as given in patent US9169255B2, “Caffeinated compounds and compositions for treatment of amyloid diseases and synucleinopathies” (ProteoTech Inc, priority 2011, dated 2015).

Key:
Type in all cases: biochemical
Aβ 1-42 fibrils [1] = target: T1, Aβ 1-42 fibrils (Homo sapiens, UniProt P05067); experiment: Thioflavin T fluorometry, disruption of pre-fibrillized Aβ 1-42; settings: for Thioflavin T fluorometry % Inhibition: 2-day incubation; for effect against Aβ fibrils/aggregates at substoichiometric concentrations: test compound:Aβ molar ratios of 0.1:1 and 0.05:1
T1 construct: pre-fibrillized human Aβ 1-42 (rPeptide); purchased rPeptide
T1 sequence (P05067 672-713 limits assumed): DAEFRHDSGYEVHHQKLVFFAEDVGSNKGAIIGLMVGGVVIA
Excerpt: In this assay Thioflavin T binds specifically to fibrillar amyloid, and this binding produces a fluorescence enhancement at 485 nm that is directly proportional to the amount of amyloid fibrils formed. The higher the fluorescence, the greater the amount of amyloid fibrils formed (Naki et al., Lab. Invest. 65:104-110, 1991; Levine III, Protein Sci. 2:404-410, 1993; Amyloid: Int. J. Exp. Clin. […] The emission fluorescence was read at 485 nm (444 nm excitation wavelength) using an ELISA plate fluorometer after subtraction with buffer alone or compound alone, as blank.

α-synuclein fibrils = target: T2, α-synuclein fibrils (Homo sapiens, UniProt P37840); experiment: Congo red binding assay, pre-formed α-synuclein fibrils; settings: 2-day incubation
T2 construct: purchased rPeptide, Bogart, Calif
Procedure: In this set of studies, the efficacy of certain compounds provided herein to cause a disassembly/disruption/disaggregation of pre-formed fibrils of Parkinson's disease (i.e. consisting of α-synuclein fibrils) was analyzed. For the studies described below in Parts A and B, 69 μM of α-synuclein (rPeptide, Bogart, Calif.) was first incubated at 37° C. for 4 days in 20 mM sodium acetate buffer at pH 4 with circular shaking (1,300 rpm) to cause α-synuclein aggregation and fibril formation.
In the Congo red binding assay, the ability of a given test compound to alter α-synuclein aggregate binding to Congo red is quantified. In this assay Congo red binds specifically to fibrillar protein, and this binding is directly proportional to the amount of fibrils formed. Following initial α-synuclein fibrilization as described above, α-synuclein aggregates and test compounds were incubated for 2 days and then vacuum filtered through a 0.2 μm filter. The amount of α-synuclein retained in the filter was then quantitated following staining of the filter with Congo red. After appropriate washing of the filter, any lowering of the Congo red color on the filter in the presence of the test compound (compared to the Congo red staining of the protein in the absence of the test compound—i.e. α-synuclein alone) was indicative of the test compound's ability to diminish/alter the amount of aggregated and congophilic α-synuclein and thus cause disassembly/disruption/disaggregation of α-synuclein fibrils.
In one study, the ability of α-synuclein fibrils to bind Congo red following a 2-day incubation of α-synuclein in the absence or presence of increasing amounts of the compounds provided herein, including positive reference (control) compounds (at test compound:α-synuclein molar ratios of 10:1, 1:1, 0.1:1, 0.01:1) was determined. The results of this study indicate that compounds of this invention disrupt/disaggregate/disassemble pre-formed α-synuclein aggregates as indicated by their ability to inhibit Parkinson's disease type α-synuclein fibril binding to Congo red.

Aβ 1-42 fibrils [2] = target: T1, Aβ 1-42 fibrils; experiment: Congo red binding assay, Aβ 1-42 fibrils; settings: for Congo Red Binding % Inhibition: 2-day incubation
Procedure: In the Congo red binding assay the ability of a test compound to alter β-amyloid binding to Congo red is quantified. In this assay, Aβ 1-42 (as prepared for the Thio T assay) and test compounds were incubated for 2 days and then vacuum filtered through a 0.2 μm filter. The amount of Aβ 1-42 retained in the filter was then quantitated following staining of the filter with Congo red. After appropriate washing of the filter, any lowering of the Congo red color on the filter in the presence of the test compound (compared to the Congo red staining of the amyloid protein in the absence of the test compound) was indicative of the test compound's ability to diminish/alter the amount of aggregated and congophilic Aβ.

wild-type α-synuclein = wild-type α-synuclein (Homo sapiens, UniProt P37840); experiment: Thioflavin T fluorometry, inhibition of formation of α-synuclein β-sheet from fresh α-synuclein
Procedure: To test whether the compounds can inhibit formation of α-synuclein β-sheet, the same assay as described in Example 2, was utilized but the α-synuclein was fresh and not pre-fibrillized. Fresh wild-type α-synuclein was dissolved in a buffer containing 9.5 mM phosphate, 137 mM sodium chloride and 2.7 mM potassium chloride (phosphate-buffered saline; PBS), and the pH was adjusted to pH 7.4. This solution was then lyophilized and dissolved in 1.0 ml deionized water at 0.5 mg/ml (35 μM). As indicated above the test compounds (typically at test compound:α-synuclein molar ratios of 10:1, 1:1, 0.1:1, and 0.01:1) were then added to the α-synuclein. Following 24-38 hours of co-incubation, the incubation mixtures were diluted 1:10 and 50 μl of each diluted incubation mixture was transferred into a 96-well microtiter plate containing 150 μl of distilled water and 50 μl of a Thioflavin T solution (i.e. 500 μM Thioflavin T in 250 mM phosphate buffer, pH 6.8). The final concentration of α-synuclein was 0.7 μM and the concentration of Thioflavin T reagent was 100 μM in 50 mM phosphate buffer, pH 6.8. In some experiments, 200 μl of each diluted incubation mixture was combined in the 96-well microtiter plate with 50 μl of the 500 μM Thioflavin T solution to give 2.8 μM α-synuclein in the presence of 100 μM Thioflavin T reagent. The fluorescence was read at 485 nm (444 nm excitation wavelength) using an ELISA plate fluorometer after subtraction with buffer alone or compound alone, as blank. Positive control compound 1 performed nearly identically in inhibiting α-synuclein aggregation regardless of whether 0.7 μM or 2.8 μM α-synuclein was subsequently used in the Thioflavin T reaction.

[3] = compound:peptide molar ratio 0.05:1
[4] = compound:peptide molar ratio 0.1:1
[5] = compound:peptide molar ratio 1:1
[6] = compound:peptide molar ratio 5:1
[7] = compound:peptide molar ratio 10:1
[8] = compound:peptide molar ratio 0.01:1

1,3-dimethyl-7-(3′,4′-dibenzyloxy)benzyl-8-(3′,4′-dihydroxyphenyl)xanthine [PD-154]
Thioflavin T fluorometry % Inhibition (Aβ 1-42 fibrils [1]; [3]): 43% | Thioflavin T fluorometry % Inhibition (Aβ 1-42 fibrils [1]; [4]): 36% | Thioflavin T fluorometry % Inhibition (Aβ 1-42 fibrils [1]; [5]): 60% | Thioflavin T fluorometry % Inhibition (Aβ 1-42 fibrils [1]; [6]): 74% | Thioflavin T fluorometry % Inhibition (Aβ 1-42 fibrils [1]; [7]): 80% | effect against Aβ fibrils/aggregates at substoichiometric concentrations (Aβ 1-42 fibrils [1]): effective | Congo Red Binding- % Inhibition (α-synuclein fibrils; [8]): 3% | Congo Red Binding- % Inhibition (α-synuclein fibrils; [4]): 0% | Congo Red Binding- % Inhibition (α-synuclein fibrils; [5]): 12% | Congo Red Binding- % Inhibition (α-synuclein fibrils; [7]): 0% | Congo Red Binding % Inhibition (Aβ 1-42 fibrils [2]; [4]): 0% | Congo Red Binding % Inhibition (Aβ 1-42 fibrils [2]; [5]): 0% | Congo Red Binding % Inhibition (Aβ 1-42 fibrils [2]; [6]): 0% | Congo Red Binding % Inhibition (Aβ 1-42 fibrils [2]; [7]): 0% | ThioT Assay % Inhibition (wild-type α-synuclein; [8]): 8% | ThioT Assay % Inhibition (wild-type α-synuclein; [4]): 44% | ThioT Assay % Inhibition (wild-type α-synuclein; [5]): 89% | ThioT Assay % Inhibition (wild-type α-synuclein; [7]): 89%

Cn1c(=O)c2c(ncn2C)n(C)c1=O [Caffeine, reference compound]
inhibition of Aβ 1-42 fibrils (Thioflavin T fluorometry) (Aβ 1-42 fibrils [1]; all concentrations tested): no significant inhibition | Thioflavin T fluorometry % Inhibition (Aβ 1-42 fibrils [1]; [5]): 0% | Thioflavin T fluorometry % Inhibition (Aβ 1-42 fibrils [1]; [6]): 0% | Thioflavin T fluorometry % Inhibition (Aβ 1-42 fibrils [1]; [7]): 8% | Congo Red Binding- % Inhibition (α-synuclein fibrils; [7]): 0% | inhibition of Aβ 1-42 fibril binding to Congo red (Aβ 1-42 fibrils [2]; all concentrations tested): no significant inhibition | Congo Red Binding % Inhibition (Aβ 1-42 fibrils [2]; [5]): 0% | Congo Red Binding % Inhibition (Aβ 1-42 fibrils [2]; [6]): 0% | Congo Red Binding % Inhibition (Aβ 1-42 fibrils [2]; [7]): 1% | ThioT Assay % Inhibition (wild-type α-synuclein; [8]): 0% | ThioT Assay % Inhibition (wild-type α-synuclein; [4]): 0% | ThioT Assay % Inhibition (wild-type α-synuclein; [5]): 0% | ThioT Assay % Inhibition (wild-type α-synuclein; [7]): 0%

Cn1cnc2c1c(=O)n(Cc1ccc(O)c(O)c1)c(=O)n2Cc1ccc(O)c(O)c1 [PD-150, 7-Methyl-1,3-bis(3′,4′-dihydroxy)benzylxanthine]
Thioflavin T fluorometry % Inhibition (Aβ 1-42 fibrils [1]; [3]): 41% | Thioflavin T fluorometry % Inhibition (Aβ 1-42 fibrils [1]; [4]): 35% | Thioflavin T fluorometry % Inhibition (Aβ 1-42 fibrils [1]; [5]): 67% | Thioflavin T fluorometry % Inhibition (Aβ 1-42 fibrils [1]; [6]): 87% | Thioflavin T fluorometry % Inhibition (Aβ 1-42 fibrils [1]; [7]): 94% | effect against Aβ fibrils/aggregates at substoichiometric concentrations (Aβ 1-42 fibrils [1]): effective | Congo Red Binding- % Inhibition (α-synuclein fibrils; [7]): 35% | Congo Red Binding % Inhibition (Aβ 1-42 fibrils [2]; [4]): 10% | Congo Red Binding % Inhibition (Aβ 1-42 fibrils [2]; [5]): 18% | Congo Red Binding % Inhibition (Aβ 1-42 fibrils [2]; [6]): 46% | Congo Red Binding % Inhibition (Aβ 1-42 fibrils [2]; [7]): 60% | ThioT Assay % Inhibition (wild-type α-synuclein; [8]): 0% | ThioT Assay % Inhibition (wild-type α-synuclein; [4]): 0% | ThioT Assay % Inhibition (wild-type α-synuclein; [5]): 22% | ThioT Assay % Inhibition (wild-type α-synuclein; [7]): 91%

Cn1c(=O)n(Cc2ccc(O)c(O)c2)c(=O)c2c1ncn2Cc1ccc(O)c(O)c1 [PD-151, 3-Methyl-1,7-bis(3′,4′-dihydroxybenzyl)xanthine]
Thioflavin T fluorometry % Inhibition (Aβ 1-42 fibrils [1]; [3]): 18% | Thioflavin T fluorometry % Inhibition (Aβ 1-42 fibrils [1]; [4]): 20% | Thioflavin T fluorometry % Inhibition (Aβ 1-42 fibrils [1]; [5]): 56% | Thioflavin T fluorometry % Inhibition (Aβ 1-42 fibrils [1]; [6]): 87% | Thioflavin T fluorometry % Inhibition (Aβ 1-42 fibrils [1]; [7]): 94% | Congo Red Binding- % Inhibition (α-synuclein fibrils; [8]): 3% | Congo Red Binding- % Inhibition (α-synuclein fibrils; [4]): 1% | Congo Red Binding- % Inhibition (α-synuclein fibrils; [5]): 6% | Congo Red Binding- % Inhibition (α-synuclein fibrils; [7]): 22% | Congo Red Binding % Inhibition (Aβ 1-42 fibrils [2]; [4]): 13% | Congo Red Binding % Inhibition (Aβ 1-42 fibrils [2]; [5]): 12% | Congo Red Binding % Inhibition (Aβ 1-42 fibrils [2]; [6]): 47% | Congo Red Binding % Inhibition (Aβ 1-42 fibrils [2]; [7]): 63% | ThioT Assay % Inhibition (wild-type α-synuclein; [8]): 0% | ThioT Assay % Inhibition (wild-type α-synuclein; [4]): 0% | ThioT Assay % Inhibition (wild-type α-synuclein; [5]): 0% | ThioT Assay % Inhibition (wild-type α-synuclein; [7]): 78%

Cn1c(=O)c2c(ncn2Cc2ccc(O)c(O)c2)n(Cc2ccc(O)c(O)c2)c1=O [PD-152]
Thioflavin T fluorometry % Inhibition (Aβ 1-42 fibrils [1]; [3]): 12% | Thioflavin T fluorometry % Inhibition (Aβ 1-42 fibrils [1]; [4]): 13% | Thioflavin T fluorometry % Inhibition (Aβ 1-42 fibrils [1]; [5]): 54% | Thioflavin T fluorometry % Inhibition (Aβ 1-42 fibrils [1]; [6]): 87% | Thioflavin T fluorometry % Inhibition (Aβ 1-42 fibrils [1]; [7]): 91% | Congo Red Binding- % Inhibition (α-synuclein fibrils; [8]): 0% | Congo Red Binding- % Inhibition (α-synuclein fibrils; [4]): 6% | Congo Red Binding- % Inhibition (α-synuclein fibrils; [5]): 19% | Congo Red Binding- % Inhibition (α-synuclein fibrils; [7]): 22% | Congo Red Binding % Inhibition (Aβ 1-42 fibrils [2]; [4]): 4% | Congo Red Binding % Inhibition (Aβ 1-42 fibrils [2]; [5]): 21% | Congo Red Binding % Inhibition (Aβ 1-42 fibrils [2]; [6]): 48% | Congo Red Binding % Inhibition (Aβ 1-42 fibrils [2]; [7]): 59% | ThioT Assay % Inhibition (wild-type α-synuclein; [8]): 0% | ThioT Assay % Inhibition (wild-type α-synuclein; [4]): 0% | ThioT Assay % Inhibition (wild-type α-synuclein; [5]): 0% | ThioT Assay % Inhibition (wild-type α-synuclein; [7]): 72%

Cn1c(=O)c2c(nc(-c3ccc(O)c(O)c3)n2C)n(C)c1=O [PD-153, 1,3,7-trimethyl-8-(3′,4′-dihydroxyoxyphenyl)xanthine]
Thioflavin T fluorometry % Inhibition (Aβ 1-42 fibrils [1]; [3]): 5% | Thioflavin T fluorometry % Inhibition (Aβ 1-42 fibrils [1]; [4]): 0% | Thioflavin T fluorometry % Inhibition (Aβ 1-42 fibrils [1]; [5]): 6% | Thioflavin T fluorometry % Inhibition (Aβ 1-42 fibrils [1]; [6]): 17% | Thioflavin T fluorometry % Inhibition (Aβ 1-42 fibrils [1]; [7]): 63% | Congo Red Binding- % Inhibition (α-synuclein fibrils; [8]): 1% | Congo Red Binding- % Inhibition (α-synuclein fibrils; [4]): 2% | Congo Red Binding- % Inhibition (α-synuclein fibrils; [5]): 6% | Congo Red Binding- % Inhibition (α-synuclein fibrils; [7]): 18% | Congo Red Binding % Inhibition (Aβ 1-42 fibrils [2]; [4]): 7% | Congo Red Binding % Inhibition (Aβ 1-42 fibrils [2]; [5]): 20% | Congo Red Binding % Inhibition (Aβ 1-42 fibrils [2]; [6]): 19% | Congo Red Binding % Inhibition (Aβ 1-42 fibrils [2]; [7]): 20% | ThioT Assay % Inhibition (wild-type α-synuclein; [8]): 13% | ThioT Assay % Inhibition (wild-type α-synuclein; [4]): 23% | ThioT Assay % Inhibition (wild-type α-synuclein; [5]): 0% | ThioT Assay % Inhibition (wild-type α-synuclein; [7]): 80%
